Source: article PMC8300687, “A Fine-Tuned Lipophilicity/Hydrophilicity Ratio Governs Antibacterial Potency and Selectivity of Bifurcated Halogen Bond-Forming NBTIs” (Antibiotics, 2021)
Converted amounts (≈) assume the structure as drawn. Where two headings read alike, the source gives them in different places.

Columns and labels:
S. aureus Topo IV = target: T1, S. aureus Topo IV (Staphylococcus aureus, UniProt Q2FYS4); assay: biochemical; conditions: for IC50: mean of two to four measurements, read-out: Topoisomerase IV IC50 S. aureus; for LE Topo IV S. aureus: LE = (1.37/HA) × pIC50
T1 construct: purchased Inspiralis (Norwich, UK)
Method: (§1) A Topo IV Relaxation High Throughput Plate assay kit, purchased from Inspiralis (Norwich. UK) was used to determine IC50 values of compounds on S. aureus and E. coli. […] Biotinylated oligonucleotide in wash buffer was immobilized onto the wells, and the excess oligonucleotide was washed off with wash buffer and ultrapure water. 1.5 U of S. aureus or E. coli […] enzyme was incubated together with 0.75 μg of supercoiled pNO1 plasmid as a substrate in the presence of 3 μL inhibitor solution in 10% DMSO and 0.008% Tween 20 at 37 °C for 30 min in a final reaction volume of 30 μL in dilution buffer (50 mM Tris-HCl (pH 7.5), 1 mM DTT, 1 mM EDTA, 40% (w/v) glycerol for S. aureus and 40 mM HEPES, KOH (pH 7.6), 100 mM potassium glutamate, 1 mM DTT, 1 mM EDTA, and 40% (v/v) glycerol for E. coli). The reactions were stopped by adding the TF buffer (50 mM NaOAc (pH 4.7), 50 mM NaCl, and 50 mM MgCl2) to allow the triplex formation (biotin-oligonucleotide-plasmid) for additional 30 min. Afterward, the unbound plasmid was washed off using TF buffer, and the solution of Promega Diamond dye in T10 buffer (10 mM Tris-HCl (pH 8.0), 1 mM EDTA) was added. […] IC50 value represents the mean of two to four independent measurements.

E. coli (ATCC 25922) = assay: MIC broth microdilution, E. coli ATCC 25922; format: cell-based; conditions: Escherichia coli, ATCC25922
Method: (§2) Antimicrobial testing was carried out by the broth microdilution method in 96-well plate format following the Clinical and Laboratory Standards Institute (CLSI) guidelines and European Committee on Antimicrobial Susceptibility Testing (EUCAST) recommendations. Bacterial suspension of specific bacterial strain equivalent to 0.5 McFarland turbidity standard was diluted with cation-adjusted Mueller Hinton broth with TES (Thermo Fisher Diagnostic, Landsmeer, The Netherlands), to obtain a final inoculum of 10^5 CFU/mL. Compounds dissolved in DMSO and inoculum were mixed together and incubated for 18–20 h at 35 °C. Suspensions of Mycobacterium sp. were prepared into a tube of Middelbrook 7H9 broth supplemented with 5% OADC (Thermo Scientific, Trek Diagnostic Systems, West Sussex, UK) and incubated for at least 10 days. After incubation the minimal inhibitory concentration (MIC) values were determined by visual inspection as the lowest dilution of compounds showing no turbidity. Tetracycline was used as a positive control on every assay plate.

E. coli Topo IV = target: T2, E. coli Topo IV (Escherichia coli, UniProt P0AFI2); assay: Topo IV Relaxation High Throughput Plate assay, E. coli; format: biochemical; conditions: for LE Topo IV E. coli: LE = (1.37/HA) × pIC50
T2 construct: purchased Inspiralis (Norwich, UK)
Method: as §1

Human topoisomerase IIα = target: T3, Human topoisomerase IIα (Homo sapiens, UniProt P11388); assay: Human topoisomerase II Alpha Relaxation High Throughput Plate assay; format: biochemical; conditions: 0.5 h; residual activity of the enzyme at compound concentration 10 μM, mean ± SD; read-out: Human Topo II (% RA)
T3 construct: purchased Inspiralis (Norwich, UK)
Method: A Human topoisomerase II Alpha Relaxation High Throughput Plate assay kit, purchased from Inspiralis (Norwich, UK) was used to evaluate the selectivity of compounds for the bacterial enzymes over the homologous human topoisomerase II. […] Biotinylated oligonucleotide in wash buffer was immobilized onto the wells and the excess oligonucleotide was washed off with wash buffer. […] The reactions were stopped by adding the TF buffer (50 mM NaOAc (pH 4.7), 50 mM NaCl, and 50 mM MgCl2) to allow the triplex formation (biotin-oligonucleotide-plasmid) for additional 30 min. Afterward, the unbound plasmid was washed off using TF buffer, and the solution of Promega Diamond dye in T10 buffer (10 mM Tris-HCl (pH 8.0), 1 mM EDTA) was added. […] Screening was performed at inhibitor concentrations of 10 μM. Raw data were converted to mean ± SD percentage of residual activity of the enzyme obtained by two independent measurements.

MRSA (QA-11.2) = assay: MIC broth microdilution, MRSA QA-11.2; format: cell-based, methicillin-resistant S. aureus; conditions: Staphylococcus aureus, 20 h, resistant to cefoxitin, chloramphenicol, clindamycin, linezolid, tetracycline, thiamulin, trimethoprim, read-out: MIC MRSA (QA-11.2)
Method: as §2

MRSA (QA-11.6) = assay: MIC broth microdilution, MRSA QA-11.6; format: cell-based, methicillin-resistant S. aureus; conditions: Staphylococcus aureus, resistant to cefoxitin, gentamicin, sulfamethoxazole, tetracycline, read-out: MIC MRSA (QA-11.6)
Method: as §2

S. pneumoniae (QA-10/02) = assay: MIC broth microdilution, S. pneumoniae; format: cell-based; conditions: Streptococcus pneumoniae
Method: as §2

E. coli (QA-11.8) = assay: MIC broth microdilution, E. coli QA-11.8; format: cell-based; conditions: Escherichia coli, 20 h; read-out: MIC E. coli (QA-11.8)
Method: as §2

[1] = test system: S. alachua RDK 030c (QA-1482/04); assay: MIC broth microdilution, S. alachua; format: cell-based; conditions: Salmonella; read-out: MIC S. alachua RDK 030c (QA-1482/04)
Method: as §2

[2] = test system: C. jejuni RDK 135 (ATCC 33560); assay: MIC broth microdilution, C. jejuni; format: cell-based; conditions: Campylobacter jejuni, ATCC33560; read-out: MIC C. jejuni RDK 135 (ATCC 33560)
Method: as §2

[3] = test system: P. aeruginosa RDK 184 (DSM 939); assay: MIC broth microdilution, P. aeruginosa; format: cell-based; conditions: Pseudomonas aeruginosa, DSM939; read-out: MIC P. aeruginosa RDK 184 (DSM 939)
Method: as §2

E. coli (QA-11.3) = assay: MIC broth microdilution, E. coli QA-11.3; format: cell-based; conditions: Escherichia coli, 20 h; read-out: MIC E. coli (QA-11.3)
Method: as §2

[4] = E. coli ATCC 25922, read-out: E. coli MIC (converted)
[5] = read-out: MIC E. coli (ATCC 25922)

T1 sequence (Q2FYS5 whole entry): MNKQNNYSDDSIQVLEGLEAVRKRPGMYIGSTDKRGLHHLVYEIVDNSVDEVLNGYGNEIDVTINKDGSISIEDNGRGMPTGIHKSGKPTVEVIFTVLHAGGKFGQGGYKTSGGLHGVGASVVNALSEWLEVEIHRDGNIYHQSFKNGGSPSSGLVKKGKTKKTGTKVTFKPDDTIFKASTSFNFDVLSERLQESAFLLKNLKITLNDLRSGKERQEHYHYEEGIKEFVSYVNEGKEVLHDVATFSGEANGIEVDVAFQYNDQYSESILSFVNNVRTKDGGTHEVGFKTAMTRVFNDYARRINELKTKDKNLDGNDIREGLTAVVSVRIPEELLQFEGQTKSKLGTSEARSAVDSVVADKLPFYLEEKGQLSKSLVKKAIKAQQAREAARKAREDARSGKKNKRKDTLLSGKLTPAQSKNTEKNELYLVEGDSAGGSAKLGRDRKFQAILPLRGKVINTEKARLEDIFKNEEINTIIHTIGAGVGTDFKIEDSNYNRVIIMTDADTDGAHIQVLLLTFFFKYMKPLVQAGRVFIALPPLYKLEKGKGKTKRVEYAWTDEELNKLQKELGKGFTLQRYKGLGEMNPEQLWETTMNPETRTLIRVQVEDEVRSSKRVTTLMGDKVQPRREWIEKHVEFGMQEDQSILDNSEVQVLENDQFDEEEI
T1 sequence (Q2FYS4 whole entry): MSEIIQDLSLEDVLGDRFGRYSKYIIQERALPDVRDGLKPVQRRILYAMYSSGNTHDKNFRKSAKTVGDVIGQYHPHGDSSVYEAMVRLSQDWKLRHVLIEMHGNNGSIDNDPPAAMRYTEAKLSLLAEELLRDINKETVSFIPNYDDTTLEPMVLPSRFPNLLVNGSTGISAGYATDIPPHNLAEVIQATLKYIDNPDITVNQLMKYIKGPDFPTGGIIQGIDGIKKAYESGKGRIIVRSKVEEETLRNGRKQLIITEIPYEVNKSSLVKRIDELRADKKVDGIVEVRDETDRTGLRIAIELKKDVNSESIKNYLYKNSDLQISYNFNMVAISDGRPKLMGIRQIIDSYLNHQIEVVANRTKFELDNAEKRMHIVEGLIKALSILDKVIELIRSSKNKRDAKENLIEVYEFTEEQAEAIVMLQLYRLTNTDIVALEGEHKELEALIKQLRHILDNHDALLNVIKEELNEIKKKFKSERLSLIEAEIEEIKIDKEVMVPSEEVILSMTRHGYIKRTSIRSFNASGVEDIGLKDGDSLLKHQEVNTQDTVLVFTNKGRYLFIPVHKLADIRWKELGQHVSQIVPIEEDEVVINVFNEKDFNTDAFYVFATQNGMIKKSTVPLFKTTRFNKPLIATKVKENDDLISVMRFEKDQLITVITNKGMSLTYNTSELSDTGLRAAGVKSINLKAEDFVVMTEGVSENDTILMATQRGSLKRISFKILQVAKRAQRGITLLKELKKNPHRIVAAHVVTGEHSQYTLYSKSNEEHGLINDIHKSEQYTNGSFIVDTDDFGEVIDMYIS
T2 sequence (P0AFI2 whole entry): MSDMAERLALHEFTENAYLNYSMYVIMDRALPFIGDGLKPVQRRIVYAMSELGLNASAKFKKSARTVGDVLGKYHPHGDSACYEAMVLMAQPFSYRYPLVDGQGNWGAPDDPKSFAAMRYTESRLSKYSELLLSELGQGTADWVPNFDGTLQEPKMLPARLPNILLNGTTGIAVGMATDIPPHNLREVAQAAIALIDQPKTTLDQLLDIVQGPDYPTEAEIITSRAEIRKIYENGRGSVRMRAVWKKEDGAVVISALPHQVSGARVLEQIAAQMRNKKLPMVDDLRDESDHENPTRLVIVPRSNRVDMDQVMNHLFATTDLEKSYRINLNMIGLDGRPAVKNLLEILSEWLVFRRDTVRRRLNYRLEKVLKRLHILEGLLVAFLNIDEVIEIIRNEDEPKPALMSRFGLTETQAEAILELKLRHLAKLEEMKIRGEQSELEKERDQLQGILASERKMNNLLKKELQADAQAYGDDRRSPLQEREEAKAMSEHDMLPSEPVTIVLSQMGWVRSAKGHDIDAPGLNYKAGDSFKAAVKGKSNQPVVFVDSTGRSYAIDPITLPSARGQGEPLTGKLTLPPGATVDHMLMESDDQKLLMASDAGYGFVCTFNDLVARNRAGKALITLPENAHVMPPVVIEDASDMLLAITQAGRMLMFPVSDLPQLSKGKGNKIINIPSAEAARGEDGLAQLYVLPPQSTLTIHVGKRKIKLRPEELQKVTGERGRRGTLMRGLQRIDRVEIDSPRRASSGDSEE
T2 sequence (P20083 whole entry, further chain): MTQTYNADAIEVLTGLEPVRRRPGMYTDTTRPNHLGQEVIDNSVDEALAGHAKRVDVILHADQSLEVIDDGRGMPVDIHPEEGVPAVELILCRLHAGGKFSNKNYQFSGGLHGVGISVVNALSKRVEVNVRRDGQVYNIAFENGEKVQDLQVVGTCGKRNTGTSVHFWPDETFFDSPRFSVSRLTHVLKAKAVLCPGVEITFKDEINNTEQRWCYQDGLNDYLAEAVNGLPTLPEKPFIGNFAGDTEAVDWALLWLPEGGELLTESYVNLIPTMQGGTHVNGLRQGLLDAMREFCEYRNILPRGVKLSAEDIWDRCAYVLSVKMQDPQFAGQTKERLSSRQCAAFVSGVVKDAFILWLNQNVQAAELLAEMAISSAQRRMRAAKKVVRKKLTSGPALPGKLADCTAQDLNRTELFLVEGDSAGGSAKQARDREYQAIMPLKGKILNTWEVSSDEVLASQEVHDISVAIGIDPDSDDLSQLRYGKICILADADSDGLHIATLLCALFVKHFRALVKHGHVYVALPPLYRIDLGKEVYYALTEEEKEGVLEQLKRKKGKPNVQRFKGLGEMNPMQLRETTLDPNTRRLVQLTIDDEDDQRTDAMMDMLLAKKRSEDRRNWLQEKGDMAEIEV
T3 sequence (P11388 whole entry): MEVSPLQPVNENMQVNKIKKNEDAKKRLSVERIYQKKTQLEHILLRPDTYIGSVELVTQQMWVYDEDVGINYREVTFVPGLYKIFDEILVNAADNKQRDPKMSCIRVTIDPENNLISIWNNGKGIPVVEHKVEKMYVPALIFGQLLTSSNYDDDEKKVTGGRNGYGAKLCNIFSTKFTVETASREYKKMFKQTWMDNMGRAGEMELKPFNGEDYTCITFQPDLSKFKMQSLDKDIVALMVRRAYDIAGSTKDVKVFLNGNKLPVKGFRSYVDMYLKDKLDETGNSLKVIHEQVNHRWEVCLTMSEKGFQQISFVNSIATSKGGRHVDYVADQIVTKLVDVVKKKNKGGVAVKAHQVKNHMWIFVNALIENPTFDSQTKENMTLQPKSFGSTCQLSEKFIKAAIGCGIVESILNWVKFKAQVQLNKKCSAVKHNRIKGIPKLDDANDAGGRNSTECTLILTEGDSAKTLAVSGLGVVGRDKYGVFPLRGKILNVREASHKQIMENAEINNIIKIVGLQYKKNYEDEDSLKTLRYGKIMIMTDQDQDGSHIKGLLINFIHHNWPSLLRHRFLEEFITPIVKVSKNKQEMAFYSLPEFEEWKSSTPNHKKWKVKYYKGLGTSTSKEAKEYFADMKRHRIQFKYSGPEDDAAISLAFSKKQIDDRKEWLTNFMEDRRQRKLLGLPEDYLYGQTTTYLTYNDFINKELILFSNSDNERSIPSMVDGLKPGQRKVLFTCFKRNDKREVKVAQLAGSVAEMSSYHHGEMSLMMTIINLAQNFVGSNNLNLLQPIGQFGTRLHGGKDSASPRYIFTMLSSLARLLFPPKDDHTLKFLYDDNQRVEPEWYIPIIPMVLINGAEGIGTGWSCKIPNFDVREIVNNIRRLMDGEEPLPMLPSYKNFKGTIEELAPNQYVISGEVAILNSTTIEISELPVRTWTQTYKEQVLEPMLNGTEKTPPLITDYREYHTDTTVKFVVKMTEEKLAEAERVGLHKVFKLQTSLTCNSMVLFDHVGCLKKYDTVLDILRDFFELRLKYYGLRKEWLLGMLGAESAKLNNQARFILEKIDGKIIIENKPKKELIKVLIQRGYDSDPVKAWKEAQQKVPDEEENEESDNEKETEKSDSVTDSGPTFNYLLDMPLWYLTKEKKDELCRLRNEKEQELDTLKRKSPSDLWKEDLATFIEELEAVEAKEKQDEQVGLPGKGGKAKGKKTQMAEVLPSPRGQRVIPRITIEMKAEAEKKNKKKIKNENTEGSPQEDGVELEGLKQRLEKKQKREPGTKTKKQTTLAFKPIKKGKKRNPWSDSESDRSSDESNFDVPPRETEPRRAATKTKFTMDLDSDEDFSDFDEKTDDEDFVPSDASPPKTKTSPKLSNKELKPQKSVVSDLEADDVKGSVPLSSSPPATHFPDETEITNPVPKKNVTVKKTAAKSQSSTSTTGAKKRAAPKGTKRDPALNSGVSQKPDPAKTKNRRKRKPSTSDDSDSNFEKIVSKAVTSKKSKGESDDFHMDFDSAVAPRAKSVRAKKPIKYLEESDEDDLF

Compound | IC50 (S. aureus Topo IV) | MIC (E. coli (ATCC 25922); [4]) | MIC (E. coli (ATCC 25922); [5]) | IC50 (E. coli Topo IV) | LE Topo IV E. coli (E. coli Topo IV) | remaining activity at 10 µM (Human topoisomerase IIα) | MIC (MRSA (QA-11.2)) | MIC (MRSA (QA-11.6)) | MIC (S. pneumoniae (QA-10/02)) | MIC (E. coli (QA-11.8)) | MIC [1] | MIC [2] | MIC [3] | MIC (E. coli (QA-11.3)) | LE Topo IV S. aureus (S. aureus Topo IV)
COc1ccc2nccc(CCN3CCC(NCc4cnn(-c5ccccc5)n4)CC3)c2n1 [Compound 8, 1-(2-(6-Methoxy-1,5-naphthyridin-4-yl)ethyl)-N-((2-phenyl-2H-1,2,3-triazol-4-yl)methyl)piperidin-4-amine] | > 100 µM | 144 µM | 64 µg/mL | 0.21 µM | 0.28 | 94.2 ± 2.9% | 0.5 µg/mL (≈ 1.13 µM) | 0.5 µg/mL (≈ 1.13 µM) | 0.25 µg/mL (≈ 0.564 µM) | 32 µg/mL (≈ 72.1 µM) | > 128 µg/mL | 4 µg/mL (≈ 9.02 µM) | > 128 µg/mL | 32 µg/mL (≈ 72.1 µM) | 
COc1ccc2nccc(CCN3CCC(NCc4cnn(-c5ccc(F)cc5)c4)CC3)c2n1 [Compound 4, N-((1-(4-Fluorophenyl)-1H-pyrazol-4-yl)methyl)-1-(2-(6-methoxy-1,5-naphthyridin-4-yl)ethyl)piperidin-4-amine] | > 100 µM | 69.5 µM | 32 µg/mL | 0.12 ± 0.01 µM | 0.28 | 88.41 ± 0.15% | 8 µg/mL (≈ 17.4 µM) | 4 µg/mL (≈ 8.69 µM) | 4 µg/mL (≈ 8.69 µM) | 16 µg/mL (≈ 34.7 µM) | 128 µg/mL (≈ 278 µM) | 128 µg/mL (≈ 278 µM) | > 128 µg/mL | 8 µg/mL (≈ 17.4 µM) | 
COc1ccc2nccc(CCN3CCC(NCc4ccc(OC(F)F)c(OC)c4)CC3)c2n1 [Compound 19, N-(4-(Difluoromethoxy)-3-methoxybenzyl)-1-(2-(6-methoxy-1,5-naphthyridin-4-yl)ethyl)piperidin-4-amine] | 29 ± 1.89 µM | 67.7 µM | 32 µg/mL | 0.1 ± 0.01 µM | 0.28 | 96.4 ± 2.3% | 2 µg/mL (≈ 4.23 µM) | 2 µg/mL (≈ 4.23 µM) | 2 µg/mL (≈ 4.23 µM) | 4 µg/mL (≈ 8.46 µM) | 128 µg/mL (≈ 271 µM) | 2 µg/mL (≈ 4.23 µM) | > 128 µg/mL | 4 µg/mL (≈ 8.46 µM) | 0.18
COc1ccc2nccc(CCN3CCC(NCc4cnn(-c5ccccc5)c4)CC3)c2n1 [Compound 5, 1-(2-(6-Methoxy-1,5-naphthyridin-4-yl)ethyl)-N-((1-phenyl-1H-pyrazol-4-yl)methyl)piperidin-4-amine] | 29.6 ± 0.54 µM | 36.1 µM | 16 µg/mL | 0.085 ± 0.002 µM | 0.29 | 82.1 ± 2.52% | 1 µg/mL (≈ 2.26 µM) | 1 µg/mL (≈ 2.26 µM) | 0.5 µg/mL (≈ 1.13 µM) | 2 µg/mL (≈ 4.52 µM) | 64 µg/mL (≈ 145 µM) | 16 µg/mL (≈ 36.2 µM) | > 128 µg/mL | 2 µg/mL (≈ 4.52 µM) | 0.19
COc1ccc(CNC2CCN(CCc3ccnc4ccc(OC)nc34)CC2)cn1 [Compound 22, 1-(2-(6-Methoxy-1,5-naphthyridin-4-yl)ethyl)-N-((6-methoxypyridin-3-yl)methyl)piperidin-4-amine] | > 100 µM | 38.1 µM | 16 µg/mL | > 100 µM |  | 97 ± 6.94% | 2 µg/mL (≈ 4.91 µM) | 2 µg/mL (≈ 4.91 µM) | 1 µg/mL (≈ 2.45 µM) | 8 µg/mL (≈ 19.6 µM) | 64 µg/mL (≈ 157 µM) | 2 µg/mL (≈ 4.91 µM) | > 128 µg/mL | 4 µg/mL (≈ 9.82 µM) | 
